Test results from patent EP0244363A1, “Composition and method to inhibit the growth of organisms by the use of bis-biguanido hexanes and essential oil mixture combinations” (WARNER-LAMBERT COMPANY, priority 1986, dated 1987).
≈ marks a conversion by molar mass, not a printed value. Where two headings read alike, the source gives them in different places.

What was measured:
Test in all cases: Minimal growth inhibitory concentration (MIC), serial dilution in broth, agent alone
Assay type in all cases: cell-based
[1] = system: Candida albicans ATCC 18804; settings: Experiment 7, C. Albicans, chlorhexidine as free base concentration
Protocol: (§1) MINIMAL GROWTH INHIBITORY CONCENTRATION
(§2) The minimal inhibitory concentration (MIC) of the test compound is the minimum concentration of compound required to inhibit growth of the test organism. The MIC is determined by serially diluting the test solution through tubes of sterile broth. The tubes are inoculated and incubated at 37°C for 48 hours. At the end of the incubation time, growth is checked macroscopically. The lowest concentration of test compound to inhibit growth is the MIC.

[2] = system: Streptococcus mutans ATCC 25175; settings: for MIC in w/w%: chlorhexidine as free base concentration; for MIC: Streptococcus mutans, ATCC25175, 48 h, read-out: MIC (micro g/ml)
Protocol: as §1, §2

[3] = system: Actinomyces viscosus T14V; settings: Experiment 6, A. viscosus, chlorhexidine as free base concentration
Protocol: as §1, §2

[4] = system: Streptococcus sanguis ATCC 19558; settings: Experiment 5, S. sanguis, chlorhexidine as free base concentration
Protocol: as §1, §2

[5] = Experiments A-D, agent alone, 37°C, 48 hours

## [H]/N=C(\N/C(=N/[H])NCCCCCCNC(=N)NC(=N)Nc1ccc(Cl)cc1)Nc1ccc(Cl)cc1 [Chlorhexidine, 1,6-di(p-chlorophenylbiguanido)hexane]
[1]
  MIC (w/w%): 3.5x10^-4 w/w%
[2]; Experiment 1, agent alone, 37°C, 48 hours
  MIC in w/w%: 2.2x10^-5 w/w%
[2]; Experiment 2, agent alone, 37°C, 48 hours
  MIC in w/w%: 2.2x10^-5 w/w%
[2]; Experiment 3, agent alone, 37°C, 48 hours
  MIC in w/w%: 2.8x10^-5 w/w%
[2]; Experiment 4, agent alone, 37°C, 48 hours
  MIC in w/w%: 2.25x10^-5 w/w%
[2]; [5]
  MIC: 0.25 µg/mL (≈ 0.495 µM)
[3]
  MIC (w/w%): 4.4x10^-5 w/w%
[4]
  MIC (w/w%): 3.4x10^-4 w/w%

## CC12CCC(CC1)C(C)(C)O2 [Eucalyptol]
[2]; [5]
  MIC: 58 µg/mL (≈ 376 µM)

## CC1CCC(C(C)C)C(O)C1 (stereo not drawn) [Menthol]
[2]
  MIC: 30 µg/mL (≈ 192 µM)

## COC(=O)c1ccccc1O [Methyl Salicylate]
[2]
  MIC: 35 µg/mL (≈ 230 µM)

## Cc1ccc(C(C)C)c(O)c1 [Thymol]
[2]; [5]
  MIC: 80 µg/mL (≈ 533 µM)
